Laboratory results from patent publication EP0563238B1, “IMIDAZOLYL-ALKENOIC ACIDS” (SMITHKLINE BEECHAM CORPORATION, priority 1990, dated 1992).
pIC50: −log10 of the molar value.

Biological target: vascular angiotensin II receptors
Test: 125I-angiotensin II radioligand binding assay
Conditions: particular fraction from rat mesenteric arteries, 80 pM 125I-angiotensin II, 1 hour at 25°C; concentration needed to displace 50% of the total specifically bound angiotensin II
Description: Angiotensin II antagonist activity of the compounds of Formula (I) is assessed by in vitro and in vivo methods. In vitro antagonist activity is determined by the ability of the compounds to compete with ^125I-angiotensin II for binding to vascular angiotensin II receptors and by their ability to antagonize the contractile response to angiotensin II in the isolated rabbit aorta. In vivo activity is evaluated by the efficacy of the compounds to inhibit the pressor response to exogenous angiotensin II in conscious rats and to lower blood pressure in a rat model of renin dependent hypertension.
The radioligand binding assay is a modification of a method previously described in detail (Gunther et al., Circ. Res. 47:278, 1980). A particular fraction from rat mesenteric arteries is incubated in Tris buffer with 80 pM of ^125I-angiotensin II with or without angiotensin II antagonists for 1 hour at 25°C. The incubation is terminated by rapid filtration and receptor bound ^125I-angiotensin II trapped on the filter is quantitated with a gamma counter. The potency of angiotensin II antagonists is expressed as the IC50 which is the concentration of antagonist needed to displace 50% of the total specifically bound angiotensin II.

- pIC50: ~6.60
Compound: CCCCc1ncc(/C=C(\Cc2cccs2)C(=O)O)n1-c1ccc(C(=O)O)cc1 [Example 1, (E)-3-[2-n-Butyl-1-{4-carboxyphenyl}-1H-imidazo-5-yl]-2-(2-thienyl)methyl-2-propenoic acid]
